Source: patent US20080306107A1, “Compounds” (AstraZeneca AB, priority 2004, published 2008)

Biological target: T1, hVR1 (Homo sapiens, UniProt Q8NER1)
T1 construct: expressed in transfected cells
Assay: hVR1 FLIPR (Fluorometric Image Plate Reader) screening assay, IC50 determination
Format: cell-based
Conditions: transfected CHO cells stably expressing hVR1; Fluo-4 calcium fluorescence; agonist 50 nM capsaicin or MES buffer pH 5.2
Method: 1. hVR1 FLIPR (Fluorometric Image Plate Reader) Screening Assay
Transfected CHO cells, stably expressing hVR1 (15,000 cells/well) are seeded in 50 ul media in a black clear bottom 384 plate (Greiner) and grown in a humidified incubator (37° C., 2% CO2), 24-30 hours prior to experiment.
Subsequently, the media is removed from the cell plate by inversion and 2 μM Fluo-4 is added using a multidrop (Labsystems). Following the 40 minutes dye incubation in the dark at 37° C. and 2% CO2, the extracellular dye present is washed away using an EMBLA (Scatron), leaving the cells in 40 ul of assay buffer (1×HBSS, 10 mM D-Glucose, 1 mM CaCl2, 10 mM HEPES, 10×7.5% NaHCO3 and 2.5 mM Probenecid).
FLIPR Assay —IC50 Determination Protocol
For IC50 determinations the fluorescence is read using FLIPR filter 1 (em […]). A cellular baseline recording is taken for 30 seconds, followed by a 20 μl addition of 10, titrated half-log concentrations of the test compound, yielding cellular concentration ranging from 3 μM to 0.1 nM. […] This consequently leading to a reduction in fluorescence signal and providing a reduced fluorescence reading, compared with no compound, buffer controls. Data is exported by the FLIPR program as a sum of fluorescence calculated under the curve upon the addition of capsaicin. […]

T1 sequence (Q8NER1 whole entry): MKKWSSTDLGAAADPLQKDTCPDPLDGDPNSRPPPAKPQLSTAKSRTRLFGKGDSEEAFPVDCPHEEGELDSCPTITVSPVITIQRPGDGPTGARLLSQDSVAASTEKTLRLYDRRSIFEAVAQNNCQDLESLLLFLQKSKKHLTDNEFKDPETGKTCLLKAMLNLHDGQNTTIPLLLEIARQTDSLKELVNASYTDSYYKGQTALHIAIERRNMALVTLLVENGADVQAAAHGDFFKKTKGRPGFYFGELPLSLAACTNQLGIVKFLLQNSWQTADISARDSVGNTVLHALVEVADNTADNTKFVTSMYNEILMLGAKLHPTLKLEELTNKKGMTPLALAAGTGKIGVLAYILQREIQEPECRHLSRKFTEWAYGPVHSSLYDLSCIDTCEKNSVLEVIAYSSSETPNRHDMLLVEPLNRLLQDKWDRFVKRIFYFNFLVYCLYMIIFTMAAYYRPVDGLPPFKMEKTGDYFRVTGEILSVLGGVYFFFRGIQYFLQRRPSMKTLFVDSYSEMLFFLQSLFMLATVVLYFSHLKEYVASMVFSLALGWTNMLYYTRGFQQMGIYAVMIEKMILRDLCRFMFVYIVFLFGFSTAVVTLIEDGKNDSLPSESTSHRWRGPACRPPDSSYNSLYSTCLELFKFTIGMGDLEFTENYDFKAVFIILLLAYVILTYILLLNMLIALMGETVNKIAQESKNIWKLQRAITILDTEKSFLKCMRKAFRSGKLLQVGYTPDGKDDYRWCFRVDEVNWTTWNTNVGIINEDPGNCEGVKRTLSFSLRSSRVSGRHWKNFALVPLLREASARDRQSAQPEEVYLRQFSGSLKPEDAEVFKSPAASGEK

Row | SMILES | IC50 [nM]
1 | Cc1cc(C(F)(F)F)c2c(N)c(C(=O)NCCc3ccccc3C)sc2n1 [Compound 3, 3-amino-6-methyl-N-[2-(2-methylphenyl)ethyl]-4-(trifluoromethyl)thieno[2,3-b]pyridine-2-carboxamide] | 119
2 | Cc1cc(C(F)(F)F)c2c(N)c(C(=O)NCCc3ccccc3)sc2n1 [Compound 11, 3-amino-6-methyl-N-(2-phenylethyl)-4-(trifluoromethyl)thieno[2,3-b]pyridine-2-carboxamide] | 716
